Experimental data published in patent US12509460B2 (Skyhawk Therapeutics, Inc., priority 2019, dated 2025).
Like-named read-outs stand apart in the source and are kept apart here.

Columns and labels:
[1] = test system: mHTT protein in GM04724 (CAG 70/20) Huntington's disease patient lymphoblast cells; test: mHTT protein assay, 2B7-MW1 assay via Mesoscale Discovery (MSD); type: cell-based, human
Procedure, shortened: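 Signal from the 2B7-MW1 antibody pair on MSD, rising with polyQ length and smaller HTT fragments, measured mHTT after 48 h compound exposure (0.6 nM–10 μM) in GM04724 cells. A parallel replicate plate gave CellTiter Glo viability.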

[2] = test system: SMN FL and SMN Δ7 in spinal muscular atrophy (SMA) patient fibroblasts (GM03813, Coriell); test: Quantitative splicing assay (SMN), qPCR; type: cell-based, human; conditions: Homo sapiens, Fibroblast, 24 h, read-out: SMN2 Splicing FL EC50
Experimental: Spinal muscular atrophy (SMA) patient fibroblasts (GM03813, Coriell) are plated in 96-well plates at 50,000 cells/well. […] Treated cells are lysed and cDNA synthesized using the Fast Advanced Cells-to-Ct kit (Thermofisher A35378) according to the manufacturer's instructions. 2 μL of each cDNA are used in qPCR reactions. […] Reactions are run in a Quant Studio 6 qPCR instrument with default settings.

[3] = test system: SMN protein in spinal muscular atrophy (SMA) patient fibroblasts (GM03813, Coriell); test: SMN protein assay, Mesoscale Discovery (MSD); type: cell-based, human; conditions: read-out: SMN2 protein EC50
Procedure, shortened: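 Absolute SMN levels were quantified by MSD against an SMN protein standard curve (1 μg/ml to 19.5 pg/ml) run on each plate. Samples were lysates of GM03813 patient fibroblasts (7000 cells/well) treated 48 hours with compound doses from 2.5 μM down to 0.6 nM.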

MDR1 (P-gp) = test: Blood-brain-barrier (BBB) penetration potential via MDCK-MDR1 permeability assay; conditions: dog; for Papp A→B at 120 min, 5 μM: MDCK-MDR1, pH 7.4, MDCK-MDR1: Papp A-B; for Papp B→A at 120 min, 5 μM: MDCK-MDR1, pH 7.4, MDCK-MDR1: Papp B-A
Experimental: (§1) Example A13: Assessment of Blood-Brain-Barrier (BBB) Penetration Potential Via an MDCK-MDR1 Permeability Assay
(§2) The permeability of compounds is assessed for BBB penetration potential by use of an MDCK-MDR1 assay (Catalog EA203) performed by Absorption Systems, Exton PA.
(§3) Experimental Procedure: MDR1-MDCK cell monolayers are grown to confluence on collagen-coated, microporous membranes in 12-well assay plates. The permeability assay buffer is Hanks' balanced salt solution containing 10 mM HEPES and 15 mM glucose at a pH of 7.4. The buffer in the receiver chamber also contained 1% bovine serum albumin. The dosing solution concentration is 5 μM of test article in the assay buffer. Cell monolayers are dosed on the apical side (A-to-B) or basolateral side (B-to-A) and incubated at 37° C. with 5% CO2 in a humidified incubator. Samples are taken from the donor and receiver chambers at 120 minutes. Each determination is performed in duplicate. The flux of lucifer yellow is also measured post-experimentally for each monolayer to ensure no damage is inflicted to the cell monolayers during the flux period. All samples are assayed by LC-MS/MS using electrospray ionization.
(§4) The apparent permeability (Papp) and percent recovery are calculated as follows:
(§5) Analytical Method: Liquid Chromatography. Column: Waters ACQUITY UPLC BEH Phenyl 30 ×2.1 mm, 1.7 μm; M.P. Buffer. 25 mM ammonium formate buffer, pH 3.5; Aqueous Reservoir (A): 90% water, 10% buffer, Organic Reservoir (B): 90% acetonitrile, 10% buffer, Flow Rate: 0.7 mL/minute; Gradient Program:
(§6) • Total Run Time: 1.00 minute • Autosampler. 2 μL injection volume • Wash1: water/methanol/2-propanol:1/1/1; with 0.2% formic acid • Wash2: 0.1% formic acid in water • Brain Penetration • Potential Classification: A-B Papp≥3.0 and Efflux Ratio <3.0: High • A-B Papp≥3.0 and 10≥Efflux Ratio >3.0: Moderate • A-B Papp≥3.0 and Efflux Ratio≥10: Low • A-B Papp<3.0: Low

[4] = test system: MDR1-MDCK cell monolayers; test: as above
Experimental: as §1, §2, §3, §4, §5, §6

MDR1 = test: as above; conditions: dog, MDCK-MDR1, pH 7.4, MDCK-MDR1: Efflux
Experimental: as §1, §2, §3, §4, §5, §6

[5] = GM04724 Huntington's disease patient lymphoblasts
[6] = SMA patient fibroblasts GM03813, 24 h, qPCR
[7] = SMA patient fibroblasts GM03813, 48 hours, MSD
[8] = GM04724 (CAG 70/20) Huntington's disease patient lymphoblasts
[9] = SMA patient fibroblasts (GM03813)
[10] = SMA patient fibroblasts (GM03813), 48 hours

SMILES | EC50 [1, 5] [nM] | EC50 [2, 6] [nM] | EC50 [3, 7] [nM] | Papp A→B at 120 min, 5 μM (MDR1 (P-gp); A-B direction) [×10⁻⁶ cm/s] | Papp B→A at 120 min, 5 μM (MDR1 (P-gp); B-A direction) [×10⁻⁶ cm/s] | MDCK-MDR1: % Recov A-B ([4]; A-B direction) [%] | MDCK-MDR1: % Recov B-A ([4]; B-A direction) [%] | efflux ratio at 120 min, 5 μM (MDR1; efflux ratio) | EC50 [1, 8] [nM] | EC50 [2, 9] [nM] | EC50 [3, 10] [nM] | Papp A→B at 120 min, 5 μM (MDR1 (P-gp); A-B) [×10⁻⁶ cm/s] | Papp B→A at 120 min, 5 μM (MDR1 (P-gp); B-A) [×10⁻⁶ cm/s] | MDCK-MDR1: % Recov A-B ([4]; A-B) [%] | MDCK-MDR1: % Recov B-A ([4]; B-A) [%] | efflux ratio at 120 min, 5 μM (MDR1)
CN(c1ccc(-c2cc3cccnc3cc2O)nn1)[C@@H]1C[C@H]2CC(F)(F)[C@@H](C1)N2 [Compound 45A, 6-(6-(((1S,3R,5R)-6,6-difluoro-8-azabicyclo[3.2.1]octan-3-yl)(methyl)amino)pyridazin-3-yl)quinolin-7-ol] | 51 to 100 | 101 to 500 | 16 to 50 | 9.45 | 54.6 | 104 | 115 | 6 | – | – | – | – | – | – | – | –
CN(C)C(=O)c1cc2cc(O)c(-c3ccc(N(C)[C@@H]4C[C@H]5CC[C@H](N5)[C@@H]4F)nn3)cc2o1 [Compound 9A, 6-(6-(((1S,2S,3R,5R)-2-fluoro-8-azabicyclo[3.2.1]octan-3-yl)(methyl)amino)pyridazin-3-yl)-5-hydroxy-N,N-dimethylbenzofuran-2-carboxamide] | 51 to 100 | 16 to 50 | 0.01 to 15 | 0.76 | 61.1 | 108 | 111 | 80 | – | – | – | – | – | – | – | –
Cc1nc2cc(-c3ccc(N(C)[C@H]4C[C@@H]5CC[C@@H](N5)[C@H]4F)nn3)c(O)cc2c(=O)n1CC(F)(F)F [Compound 113B, 7-(6-(((1R,2R,3S,5S)-2-fluoro-8-azabicyclo[3.2.1]octan-3-yl)(methyl)amino)pyridazin-3-yl)-6-hydroxy-2-methyl-3-(2,2,2-trifluoroethyl)quinazolin-4(3H)-one] | – | – | – | – | – | – | – | – | 101 to 500 | 16 to 50 | 0.01 to 15 | 0.3 | 68.4 | 101 | 123 | 232
CNC(=O)c1ccc(-c2ccc(N(C)[C@H]3C[C@@H]4CC[C@@H](N4)[C@H]3F)nn2)c(O)c1 (single isomer, unassigned) [Compound 77B] | 101 to 500 | 51 to 100 | 101 to 500 | 0.28 | 40.3 | 102 | 106 | 144 | – | – | – | – | – | – | – | –
Cc1cc(=O)c2cc(O)c(-c3ccc(N(C)[C@H]4C[C@@H]5CC[C@H]([C@H]4F)N5C)nn3)cc2o1 [Compound 99B, 7-(6-(((1R,2R,3S,5S)-2-fluoro-8-methyl-8-azabicyclo[3.2.1]octan-3-yl)(methyl)amino)pyridazin-3-yl)-6-hydroxy-2-methyl-4H-chromen-4-one] | – | – | – | – | – | – | – | – | 101 to 500 | 51 to 100 | 0.01 to 15 | 2.74 | 56.7 | 103 | 112 | 21
Cc1cc(=O)c2cc(-c3ccc(N(C)[C@H]4C[C@@H]5CC[C@H]([C@H]4F)N5C)nn3)c(O)cc2o1 [Compound 100B, 6-(6-(((1R,2R,3S,5S)-2-fluoro-8-methyl-8-azabicyclo[3.2.1]octan-3-yl)(methyl)amino)pyridazin-3-yl)-7-hydroxy-2-methyl-4H-chromen-4-one] | – | – | – | – | – | – | – | – | 51 to 100 | 16 to 50 | 16 to 50 | 9.57 | 38.7 | 79 | 80 | 4
CN(c1ccc(-c2cc3oc(C(=O)N4CCC4)cc3cc2O)nn1)[C@@H]1C[C@H]2CC[C@H](N2)[C@@H]1F [Compound 112A, azetidin-1-yl(6-(6-(((1S,2S,3R,5R)-2-fluoro-8-azabicyclo[3.2.1]octan-3-yl)(methyl)amino)pyridazin-3-yl)-5-hydroxybenzofuran-2-yl)methanone] | – | – | – | – | – | – | – | – | 51 to 100 | 51 to 100 | 0.01 to 15 | 0.6 | 43.8 | 95 | 78 | 74
